Laboratory results as given in patent US20130078287A1 (Horizon Pharma USA, Inc., priority 2010, published 2013).
Marks after values point to notes of the source that are not given here.

What was measured:
[1] = system: subjects expected to require daily NSAID therapy; experiment: REDUCE-2 study: adverse events
Source text: (§2) Randomization was stratified based on aspirin/anticoagulant therapy and prior ulcer history.
Secondary endpoints were gastric ulcers, duodenal ulcers, and serious GI complications.

[2] = system: subjects expected to require daily NSAID therapy; experiment: Integrated REDUCE-1 and REDUCE-2: adverse events
[3] = system: subjects expected to require daily NSAID therapy; experiment: REDUCE-1 study: adverse events
Source text: as §2
Secondary endpoints were UGI ulcers, duodenal ulcers, and serious GI complications

[4] = system: subjects expected to require daily NSAID therapy; experiment: REDUCE-2 study: endoscopically diagnosed UGI, gastric and duodenal ulcers; format: in vivo, human
Protocol: (§1) Subjects were deemed a treatment failure and terminated early from the study in the event they developed an endoscopically diagnosed UGI ulcer. Subjects who terminated early for reasons other than development of an endoscopically diagnosed UGI ulcer were to undergo an endoscopic examination at a termination visit that was conducted as soon as possible after administration of their final dose of study drug. The predefined population for primary analyses of ulcers was all subjects with ≧1 follow-up study endoscopy.

[5] = system: subjects expected to require daily NSAID therapy; experiment: REDUCE-1 study: endoscopically diagnosed gastric, duodenal and UGI ulcers; format: in vivo, human; conditions: for Proportion of subjects with Duodenal Ulcer / Proportion of subjects with Gastric Ulcer / Proportion of subjects with UGI Ulcer / UGI Ulcer: Subjects with Low-dose Aspirin Use / UGI Ulcer: Subjects with Prior Ulcer: REDUCE-1, 24 weeks
Protocol: as §1

[6] = integrated REDUCE-1 and REDUCE-2
[7] = REDUCE-2, 24 weeks, crude proportion
[8] = REDUCE-2, 24 weeks, crude proportion, listed as ibuprofen
[9] = REDUCE-2, 24 weeks, life table estimate
[10] = REDUCE-2, 24 weeks, life table estimate, listed as ibuprofen
[11] = REDUCE-2, early terminations imputed as having an ulcer
[12] = crude proportion, listed as ibuprofen
[13] = life table estimate, listed as ibuprofen
[14] = REDUCE-1, early drop-outs imputed as treatment failures

CC(C)Cc1ccc(C(C)C(=O)O)cc1 (stereo not drawn) [Ibuprofen, 2-(p-isobutylphenyl)propionic acid]
AEs Leading to Discontinuation, Incidence (%) [1]: 7.1% | AEs by Severity: Life Threatening, Incidence (%) [1]: 0.0% | AEs by Severity: Moderate, Incidence (%) [1]: 21.7% | AEs by Severity: Severe, Incidence (%) [1]: 6.6% | Abdominal Pain Upper, Incidence (%) [1]: 1.9% | Any GI Event, Incidence (%) [1]: 29.7* % | Cardiac Disorders, Incidence (%) [1]: 0.5% | Constipation, Incidence (%) [1]: 3.8% | Deaths, Incidence % [1]: 0/0.0% | Diarrhea, Incidence (%) [1]: 4.2% | Dyspepsia, Incidence (%) [1]: 8.5** % | General Disorders/Administrative Site Conditions, Incidence (%) [1]: 3.8% | Hepatobiliary Disorders, Incidence (%) [1]: 0.0% | Hypertension, Incidence (%) [1]: 1.9% | Infections/Infestations, Incidence (%) [1]: 19.3% | Injury, Poisoning, Procedural Complications, Incidence (%) [1]: 3.8% | Investigations, Incidence (%) [1]: 2.4% | Musculoskeletal/connective Tissue Disorders, Incidence (%) [1]: 5.2% | Nausea, Incidence (%) [1]: 5.2% | Nervous System Disorders, Incidence (%) [1]: 4.7% | Renal and Urinary Disorders, Incidence (%) [1]: 0.0% | Respiratory, Thoracic and Mediastinal Disorders, Incidence (%) [1]: 4.7% | SAEs leading to discontinuation, Incidence % [1]: 2/0.9% | Subjects with at least one AE, Incidence (%) [1]: 54.7% | Total SAEs, Incidence % [1]: 4/1.9% | Withdrawals due to GI, Incidence (%) [1]: 5.2*** % | AEs Leading to Discontinuation, Incidence (%) [2, 6]: 7.6% | AEs by Relatedness: Possibly Related, Incidence (%) [2, 6]: 25.0% | AEs by Relatedness: Probably Not Related, Incidence (%) [2, 6]: 33.7% | AEs by Severity: Life Threatening, Incidence (%) [2, 6]: 0.4% | AEs by Severity: Moderate, Incidence (%) [2, 6]: 25.0% | AEs by Severity: Severe, Incidence (%) [2, 6]: 6.8% | Subjects with at least one AE, Incidence (%) [2, 6]: 58.7% | TEAE: Abdominal distension ([2]; integrated, safety population): 1.4 (7) % | TEAE: Abdominal pain ([2]; integrated, safety population): 1.6 (8) % | TEAE: Abdominal pain upper ([2]; integrated, safety population): 2.5 (13) % | TEAE: Abdominal tenderness ([2]; integrated, safety population): 1.0 (5) % | TEAE: Anaemia ([2]; integrated, safety population): 1.4 (7) % | TEAE: Arthralgia ([2]; integrated, safety population): 1.8 (9) % | TEAE: Back pain ([2]; integrated, safety population): 0.8 (4) % | TEAE: Blood and lymphatic system disorders ([2]; integrated, safety population): 1.8 (9) % | TEAE: Bronchitis ([2]; integrated, safety population): 1.2 (6) % | TEAE: Constipation ([2]; integrated, safety population): 4.1 (21) % | TEAE: Cough ([2]; integrated, safety population): 2.0 (10) % | TEAE: Diarrhoea ([2]; integrated, safety population): 4.3 (22) % | TEAE: Dizziness ([2]; integrated, safety population): 1.4 (7) % | TEAE: Dyspepsia ([2]; integrated, safety population): 8.0 (41) % | TEAE: Dyspnoea ([2]; integrated, safety population): 1.0 (5) % | TEAE: Fall ([2]; integrated, safety population): 1.0 (5) % | TEAE: Fatigue ([2]; integrated, safety population): 1.0 (5) % | TEAE: Flatulence ([2]; integrated, safety population): 0.4 (2) % | TEAE: Gastritis ([2]; integrated, safety population): 1.4 (7) % | TEAE: Gastro-oesophageal reflux disease ([2]; integrated, safety population): 3.1 (16) % | TEAE: Gastroenteritis viral ([2]; integrated, safety population): 0.8 (4) % | TEAE: Gastrointestinal disorders ([2]; integrated, safety population): 28.4 (145) % | TEAE: General disorders and administration site conditions ([2]; integrated, safety population): 4.5 (23) % | TEAE: Headache ([2]; integrated, safety population): 3.3 (17) % | TEAE: Hypertension ([2]; integrated, safety population): 2.2 (11) % | TEAE: Infections and infestations ([2]; integrated, safety population): 20.7 (106) % | TEAE: Influenza ([2]; integrated, safety population): 1.6 (8) % | TEAE: Injury, poisoning and procedural complications ([2]; integrated, safety population): 5.1 (26) % | TEAE: Insomnia ([2]; integrated, safety population): 1.0 (5) % | TEAE: Muscle spasms ([2]; integrated, safety population): 0.4 (2) % | TEAE: Musculoskeletal and connective tissue disorders ([2]; integrated, safety population): 6.8 (35) % | TEAE: Musculoskeletal pain ([2]; integrated, safety population): 0.8 (4) % | TEAE: Nasopharyngitis ([2]; integrated, safety population): 2.7 (14) % | TEAE: Nausea ([2]; integrated, safety population): 4.7 (24) % | TEAE: Nervous system disorders ([2]; integrated, safety population): 6.1 (31) % | TEAE: Oedema peripheral ([2]; integrated, safety population): 1.8 (9) % | TEAE: Pain in extremity ([2]; integrated, safety population): 0.8 (4) % | TEAE: Pharyngolaryngeal pain ([2]; integrated, safety population): 1.2 (6) % | TEAE: Psychiatric disorders ([2]; integrated, safety population): 3.1 (16) % | TEAE: Rash ([2]; integrated, safety population): 1.0 (5) % | TEAE: Respiratory, thoracic and mediastinal disorders ([2]; integrated, safety population): 7.0 (36) % | TEAE: Sinus congestion ([2]; integrated, safety population): 1.4 (7) % | TEAE: Sinusitis ([2]; integrated, safety population): 2.7 (14) % | TEAE: Skin and subcutaneous tissue disorders ([2]; integrated, safety population): 3.5 (18) % | TEAE: Stomach discomfort ([2]; integrated, safety population): 1.6 (8) % | TEAE: Upper respiratory tract infection ([2]; integrated, safety population): 4.1 (21) % | TEAE: Urinary tract infection ([2]; integrated, safety population): 2.3 (12) % | TEAE: Vascular disorders ([2]; integrated, safety population): 2.7 (14) % | TEAE: Vomiting ([2]; integrated, safety population): 1.8 (9) % | Total Subjects With at Least One TEAE ([2]; integrated, safety population): 58.7 (300) % | AEs Leading to Discontinuation, Incidence (%) [3]: 7.7% | AEs by Relatedness: Possibly Related, Incidence (%) [3]: 23.1% | AEs by Relatedness: Probably Not Related, Incidence (%) [3]: 38.1% | AEs by Severity: Life Threatening, Incidence (%) [3]: 0.7% | AEs by Severity: Moderate, Incidence (%) [3]: 27.1% | AEs by Severity: Severe, Incidence (%) [3]: 7.0% | Abdominal Pain Upper, Incidence (%) [3]: 4.0% | Any GI Event, Incidence (%) [3]: 27.4* % | Cardiac Disorders, Incidence (%) [3]: 1.3% | Constipation, Incidence (%) [3]: 4.3% | Deaths, Incidence % [3]: 1/0.1% | Diarrhea, Incidence (%) [3]: 4.3% | Dyspepsia, Incidence (%) [3]: 7.7% | General Disorders/Administrative Site Conditions, Incidence (%) [3]: 7.7% | Hepatobiliary Disorders, Incidence (%) [3]: 0.0% | Hypertension, Incidence (%) [3]: 2.3% | Injury, Poisoning, Procedural Complications, Incidence (%) [3]: 6.0% | Investigations, Incidence (%) [3]: 5.0% | Musculoskeletal/connective Tissue Disorders, Incidence (%) [3]: 8.0% | Nausea, Incidence (%) [3]: 4.3% | Nervous System Disorders, Incidence (%) [3]: 7.0% | Renal and Urinary Disorders, Incidence (%) [3]: 1.0% | Respiratory, Thoracic and Mediastinal Disorders, Incidence (%) [3]: 8.7% | SAEs leading to discontinuation, Incidence % [3]: 2/0.7% | Subjects with at least one AE, Incidence (%) [3]: 61.2% | Total SAEs, Incidence % [3]: 13/4.3% | Withdrawals due to GI, Incidence (%) [3]: 5.0% | Proportion of subjects with Duodenal Ulcer [4, 7]: 9/190 (4.7%); | Proportion of subjects with Gastric Ulcer [4, 7]: 34/190 (17.9%); | Proportion of subjects with UGI Ulcer [4, 7]: 38/190 (20%); | UGI Ulcer: Subjects with Low-dose Aspirin Use [4, 7]: 6/23 (26.1%); | UGI Ulcer: Subjects with Prior Ulcer [4, 7]: 2/11 (18.2%); | Proportion of subjects with Duodenal Ulcer [4, 8]: 4.7% | Proportion of subjects with Gastric Ulcer [4, 8]: 17.9% | Proportion of subjects with UGI Ulcer [4, 8]: 20.0% | Proportion of subjects with Duodenal Ulcer [4, 9]: 6.6% | Proportion of subjects with Gastric Ulcer [4, 9]: 19.7% | Proportion of subjects with UGI Ulcer [4, 9]: 22.6% | UGI Ulcer: Subjects with Prior Ulcer [4, 9]: 20.0% | Proportion of subjects with Duodenal Ulcer [4, 10]: 6.6% | Proportion of subjects with Gastric Ulcer [4, 10]: 19.7% | Proportion of subjects with UGI Ulcer [4, 10]: 22.6% | Crude ulcer rate, UGI ulcers ([4]; REDUCE-2, early drop-outs imputed as treatment failures): 25.3% | Crude ulcer rate, duodenal ulcer [4, 11]: 10.1% | Crude ulcer rate, gastric ulcer [4, 11]: 23.2% | Proportion of subjects with Duodenal Ulcer ([5]; crude proportion): 14/262 (5.3%); | Proportion of subjects with Gastric Ulcer ([5]; crude proportion): 52/262 (19.8%); | Proportion of subjects with UGI Ulcer ([5]; crude proportion): 61/262 (23.3%)*; | UGI Ulcer: Subjects with Low-dose Aspirin Use ([5]; crude proportion): 10/32 (31.3%); | UGI Ulcer: Subjects with Prior Ulcer ([5]; crude proportion): 4/15 (26.7%); | Proportion of subjects with Duodenal Ulcer [5, 12]: 5.3% | Proportion of subjects with Gastric Ulcer [5, 12]: 19.8% | Proportion of subjects with UGI Ulcer [5, 12]: 23.3% | Proportion of subjects with Duodenal Ulcer ([5]; life table estimate): 7.1% | Proportion of subjects with Gastric Ulcer ([5]; life table estimate): 25.3% | Proportion of subjects with UGI Ulcer ([5]; life table estimate): 29.1%* | UGI Ulcer: Subjects with Low-dose Aspirin Use ([5]; life table estimate): 33.3% | UGI Ulcer: Subjects with Prior Ulcer ([5]; life table estimate): 27.3% | Proportion of subjects with Duodenal Ulcer [5, 13]: 7.1% | Proportion of subjects with Gastric Ulcer [5, 13]: 25.3% | Proportion of subjects with UGI Ulcer [5, 13]: 29.1% | Crude ulcer rate, UGI ulcer [5, 14]: 30.2% | Crude ulcer rate, gastric ulcers [5, 14]: 26.7% | NSAID associated serious GI complications, % of subjects ([5]; REDUCE-1, secondary efficacy endpoint): none
